# Assay results published in EP2818472A1, “Imidazo[4,5-c]pyridine and pyrrolo[3,2-c]pyridine compounds as G-protein-coupled receptor kinase 5 (GRK5) modulators” (Max-Planck-Gesellschaft zur Förderung der Wissenschaften …, priority 2013, dated 2014).
# System: beta-TC6 cells
# Assay: Insulin HTRF assay (relative activity Ar) in beta-TC6 cells
# Type: cell-based, mouse
# Conditions: Mus musculus, Beta-TC6, 4 h, insulin HTRF, supernatant of beta-TC6 cells, incubation with test compound at 37°C for 2, 3, 4h; read-out: Ar (relative activity)
# From the text: For further screening of compounds derived from compounds described above for their ability to regulate insulin release an insulin HTRF® (Homogeneous Time-Resolved Fluorescence; Cisbio International, France) was used. This assay is based on two antibodies against insulin binding to different epitopes of insulin. One of these antibodies is coupled to Europium (Ab-Eu-Cryptate) and the other one to the fluorophore XL665 (Ab-XL665). If the insulin is secreted into the supernatant of cell culture, both antibodies can bind to insulin and come therefore into close proximity, which allows upon excitation that energy transfer between (FRET) the long-life fluorescent donor Europium (cryptate) and the acceptors XL665. FRET increases proportionally with insulin concentration.
# The automated assay protocol is as follows: • On day 1, 15k beta-TC6 cells per well were seeded for 24 or 48 h in 50 µL complete medium. On day 2 or respective on day 3, the medium is removed and cells are washed with 60 µL 1xPBS and 20 µL induction buffer is added using BioTek washer. Subsequently, 10 µL Sunitininb (5 -µM f.c.) or the test compound in induction buffer; 0.5% f.c. DMSO (CyBi-well) is transferred to the cells. The cells are then incubated at 37°C for 2, 3, 4h.
# First 10 µL supernatant is transferred from the cell plates in HTRF plates (CyBi-well). 10 µL of 0, 1, 2, and 4 ng/ml insulin standard controls in assay medium is used as a control. To each well 10 µL of combined 1:25 Ab-XL665 (Acc) and 1:20 Ab-Eu-Cryptate (WellMate) are added and incubated for 120 min at RT in the dark. Finally HTRF is measured on ViewLux ultra high throughput microplate imager (PerkinElmer).
# The evaluation software DataFactoty derives relative activities Ar according to the following equation: Ar = (V-R(0%control))/(R(100%control) -R0%control)) × 100 [formula]
# The activity of the compounds was classified according to their Ar (relative activity) into the following ranges: […]
row,SMILES,Emax [%]
1,"CN(C)C(=O)c1ccc(-c2cc3cnc(Nc4cccc(NS(C)(=O)=O)c4)cc3[nH]2)cc1 [Compound 39, 4-[6-[3-(methanesulfonamido)anilino]-1H-pyrrolo[3,2-c]pyridin-2-yl]-N,N-dimethyl-benzamide]",50 to 100
2,"CN(C)C(=O)c1ccc(Nc2cc3[nH]c(-c4ccc(C(=O)N(C)C)cc4)cc3cn2)cc1 [Compound 40, 4-[6-[4-(dimethylcarbamoyl)anilino]-1H-pyrrolo[3,2-c]pyridin-2-yl]-N,N-dimethyl-benzamide]",> 100
3,"CC(=O)Nc1cccc(Nc2cc3[nH]c(-c4ccc(C(=O)N(C)C)cc4)cc3cn2)c1 [Compound 41, 4-[6-(3-acetamidoanilino)-1H-pyrrolo[3,2-c]pyridin-2-yl]-N,N-dimethyl-benzamide]",> 100
4,"CC(=O)c1cccc(Nc2cc3[nH]c(-c4ccc(C(=O)N(C)C)cc4)cc3cn2)c1 [Compound 42, 4-[6-(3-acetylanilino)-1H-pyrrolo[3,2-c]pyridin-2-yl]-N,N-dimethyl-benzamide]",50 to 100
5,"CN(C)C(=O)c1ccc(-c2cc3cnc(Nc4ccc(S(C)(=O)=O)cc4)cc3[nH]2)cc1 [Compound 43, N,N-dimethyl-4-[6-(4-methylsulfonylanilino)-1H-pyrrolo[3,2-c]pyridin-2-yl]benzamide]",50 to 100
6,"CC(C)Oc1cccc(Nc2cc3[nH]c(-c4ccc(C(=O)N(C)C)cc4)cc3cn2)c1 [Compound 44, 4-[6-(3-isopropoxyanilino)-1H-pyrrolo[3,2-c]pyridin-2-yl]-N,N-dimethyl-benzamide]",30 to 50
7,"COc1cccc(Nc2cc3c(cn2)cc(-c2ccc(C(=O)N(C)C)cc2)n3C)c1 [Compound 45, 4-[6-(3-methoxyanilino)-1-methyl-pyrrolo[3,2-c]pyridin-2-yl]-N,N-dimethyl-benzamide]",30 to 50
8,"COc1ccc(Nc2cc3c(cn2)cc(-c2ccc(C(=O)N(C)C)cc2)n3C)cc1OC [Compound 46, 4-[6-(3,4-dimethoxyanilino)-1-methyl-pyrrolo[3,2-c]pyridin-2-yl]-N,N-dimethyl-benzamide]",50 to 100
9,"CN(C)C(=O)c1ccc(-c2cc3cnc(Nc4cccnc4)cc3n2C)cc1 [Compound 47, N,N-dimethyl-4-[1-methyl-6-(3-pyridylamino)pyrrolo[3,2-c]pyridin-2-yl]benzamide]",50 to 100
10,"CN(C)C(=O)c1ccc(-c2cc3cnc(Nc4ccccc4)cc3n2C)cc1 [Compound 48, 4-(6-anilino-1-methyl-pyrrolo[3,2-c]pyridin-2-yl)-N,N-dimethyl-benzamide]",50 to 100
11,"CN1CCN(c2ccc(Nc3cc4c(cn3)cc(-c3ccc(C(=O)N(C)C)cc3)n4C)cc2)CC1 [Compound 49, N,N-dimethyl-4-[1-methyl-6-[4-(4-methylpiperazin-1-yl)anilino]pyrrolo[3,2-c]pyridin-2-yl]benzamide]",50 to 100
12,"CN(C)C(=O)c1ccc(-c2cc3cnc(Nc4cccc(N(C)C)c4)cc3n2C)cc1 [Compound 50, 4-[6-[3-(dimethylamino)anilino]-1-methyl-pyrrolo[3,2-c]pyridin-2-yl]-N,N-dimethyl-benzamide]",50 to 100
13,"CN(C)C(=O)c1ccc(-c2cc3cnc(Nc4ccccn4)cc3n2C)cc1 [Compound 51, N,N-dimethyl-4-[1-methyl-6-(2-pyridylamino)pyrrolo[3,2-c]pyridin-2-yl]benzamide]",30 to 50
14,"CN(C)C(=O)c1ccc(-c2cc3cnc(N(C)c4ccccc4)cc3n2C)cc1 [Compound 52, N,N-dimethyl-4-[1-methyl-6-(N-methylanilino)pyrrolo[3,2-c]pyridin-2-yl]benzamide]",30 to 50
15,"CN(C)C(=O)c1ccc(-c2cc3cnc(Nc4cccc(O)c4)cc3n2C)cc1 [Compound 53, 4-[6-(3-hydroxyanilino)-1-methyl-pyrrolo[3,2-c]pyridin-2-yl]-N,N-dimethyl-benzamide]",50 to 100
16,"COc1ccc(Nc2cc3c(cn2)cc(-c2ccc(C(=O)N(C)C)cc2)n3C)cc1O [Compound 54, 4-[6-(3-hydroxy-4-methoxy-anilino)-1-methyl-pyrrolo[3,2-c]pyridin-2-yl]-N,N-dimethyl-benzamide]",50 to 100
17,"CN(C)C(=O)c1ccc(-c2cc3cnc(Nc4cccc(NS(C)(=O)=O)c4)cc3n2C)cc1 [Compound 55, 4-[6-[3-(methanesulfonamido)anilino]-1-methyl-pyrrolo[3,2-c]pyridin-2-yl]-N,N-dimethyl-benzamide]",50 to 100
18,"CC(=O)Nc1cccc(Nc2cc3c(cn2)cc(-c2ccc(C(=O)N(C)C)cc2)n3C)c1 [Compound 56, 4-[6-(3-acetamidoanilino)-1-methyl-pyrrolo[3,2-c]pyridin-2-yl]-N,N-dimethyl-benzamide]",50 to 100

row,SMILES,Emax [%]
1,"CC(=O)Nc1ccc(Nc2cc3c(cn2)cc(-c2ccc(C(=O)N(C)C)cc2)n3Cc2ccccc2)cc1 [Compound 57, 4-[6-(4-acetamidoanilino)-1-benzyl-pyrrolo[3,2-c]pyridin-2-yl]-N,N-dimethyl-benzamide]",30 to 50
2,"CN(C)C(=O)c1ccc(-c2cc3cnc(Nc4ccncn4)cc3n2Cc2ccccc2)cc1 [Compound 58, 4-[1-benzyl-6-(pyrimidin-4-ylamino)pyrrolo[3,2-c]pyridin-2-yl]-N,N-dimethyl-benzamide]",30 to 50
3,"CN(C)c1ccc(-c2cc3cnc(Nc4ccccn4)cc3n2C)cc1 [Compound 59, 2-(4-dimethylaminophenyl)-1-methyl-N-(2-pyridyl)pyrrolo[3,2-c]pyridin-6-amine]",0 to 30
4,"CN(C)c1ccc(-c2cc3cnc(Nc4cccc(O)c4)cc3n2Cc2ccccc2)cc1 [Compound 60, 3-[[1-benzyl-2-(4-dimethylaminophenyl)pyrrolo[3,2-c]pyridin-6-yl]amino]phenol]",0 to 30
5,"CN(C)c1ccc(-c2cc3cnc(Nc4ccncn4)cc3n2Cc2ccccc2)cc1 [Compound 61, 1-benzyl-2-(4-dimethylaminophenyl)-N-pyrimidin-4-yl-pyrrolo[3,2-c]pyridin-6-amine]",0 to 30
6,"COc1cc(Nc2cc3[nH]c(-c4ccccn4)cc3cn2)cc(OC)c1OC [Compound 62, 2-(2-pyridyl)-N-(3,4,5-trimethoxyphenyl)-1H-pyrrolo[3,2-c]pyridin-6-amine]",> 100
7,"COc1ccc(Nc2cc3[nH]c(-c4ccccn4)cc3cn2)c(C)c1 [Compound 63, N-(4-methoxy-2-methyl-phenyl)-2-(2-pyridyl)-1H-pyrrolo[3,2-c]pyridin-6-amine]",50 to 100
8,"Cc1cccc(Nc2cc3[nH]c(-c4ccccn4)cc3cn2)c1 [Compound 64, N-(m-tolyl)-2-(2-pyridyl)-1H-pyrrolo[3,2-c]pyridin-6-amine]",50 to 100
9,"COc1ccc(Nc2cc3[nH]c(-c4ccccn4)cc3cn2)cc1 [Compound 65, N-(4-methoxyphenyl)-2-(2-pyridyl)-1H-pyrrolo[3,2-c]pyridin-6-amine]",> 100
10,"FC(F)(F)c1cccc(Nc2cc3[nH]c(-c4ccccn4)cc3cn2)c1 [Compound 66, 2-(2-pyridyl)-N-[3-(trifluoromethyl)phenyl]-1H-pyrrolo[3,2-c]pyridin-6-amine]",30 to 50
11,"COC(=O)c1ccc(Nc2cc3[nH]c(-c4ccccn4)cc3cn2)cc1 [Compound 67, methyl 4-[[2-(2-pyridyl)-1H-pyrrolo[3,2-c]pyridin-6-yl]amino]benzoate]",30 to 50
12,"N#Cc1ccc(Nc2cc3[nH]c(-c4ccccn4)cc3cn2)cc1 [Compound 68, 4-[[2-(2-pyridyl)-1H-pyrrolo[3,2-c]pyridin-6-yl]amino]benzonitrile]",50 to 100
13,"FC(F)(F)Oc1cccc(Nc2cc3[nH]c(-c4ccccn4)cc3cn2)c1 [Compound 69, 2-(2-pyridyl)-N-[3-(trifluoromethoxy)phenyl]-1H-pyrrolo[3,2-c]pyridin-6-amine]",30 to 50
14,"CN(C)C(=O)c1ccc(Nc2cc3[nH]c(-c4ccccn4)cc3cn2)cc1 [Compound 70, N,N-dimethyl-4-[[2-(2-pyridyl)-1H-pyrrolo[3,2-c]pyridin-6-yl]amino]benzamide]",> 100
15,"Fc1cccc(Nc2cc3[nH]c(-c4ccccn4)cc3cn2)c1 [Compound 71, N-(3-fluorophenyl)-2-(2-pyridyl)-1H-pyrrolo[3,2-c]pyridin-6-amine]",50 to 100
16,"CS(=O)(=O)c1ccc(Nc2cc3[nH]c(-c4ccccn4)cc3cn2)cc1 [Compound 72, N-(4-methylsulfonylphenyl)-2-(2-pyridyl)-1H-pyrrolo[3,2-c]pyridin-6-amine]",> 100
17,"CC(C)Oc1cccc(Nc2cc3[nH]c(-c4ccccn4)cc3cn2)c1 [Compound 73, N-(3-isopropoxyphenyl)-2-(2-pyridyl)-1H-pyrrolo[3,2-c]pyridin-6-amine]",50 to 100
18,"CC(=O)Nc1ccc(Nc2cc3[nH]c(-c4cccnc4)cc3cn2)cc1 [Compound 74, N-[4-[[2-(3-pyridyl)-1H-pyrrolo[3,2-c]pyridin-6-yl]amino]phenyl]acetamide]",> 100
